Experimental data taken from patent publication US4970225A, “Imidazolidine carboxylic acids and esters as blood platelet aggregation inhibitors” (Bristol-Myers Squibb Company, priority 1990, dated 1990).
Values after ≈ are worked out from the molar mass of the structure shown.

System: ADP-induced aggregation of human platelets
Type: cell-based
Details: Table 1; human platelet rich plasma; ADP 0.5 mcg/mL; read-out: Inhibition of Human Platelet Aggregation IC50 vs. ADP
Description: The aggregometer method of Born, C. […] Clin. Med. 1964, 64, 548-599 was used to assess the in vitro activity of the various compounds as to the inhibition of adenosine diphosphate (ADP) and collagen-induced platelet aggregation. The human volunteer donor's arm is cleansed with 70% ethyl alcohol. A sterile 20 ml syringe and needle are used to withdraw 20 ml of blood. The blood is immediately added to a test tube containing 3.8% sodium citrate to prevent clotting (1 part citrate to 9 parts blood).
Platelet rich plasma (PRP) was separated by centrifugation for 10 minutes at 1000 rpm (140 xg) from citrated (3.8%) human blood. All glassware used for preparation of PRP is silicon treated. ADP in final concentration of 0.5 mcg/mL or 0.05 mL of a collagen suspension prepared according to the method described by Evans, G., et al., J. Exp. Med., 1968, 128, 877-894 was used to induce aggregation. The various compounds tested were dissolved in dimethylsulfoxide (DMSO) so that 5 mcl added to the platelet rich plasma would yield the desired test concentration. Vehicle control trials were done and compared with aggregation induced in platelet rich plasma containing various concentrations of the test compounds. Dose response curves were obtained and Inhibitor Concentration (IC50) values calculated.

| Structure (SMILES) | IC50 |
| --- | --- |
| COC(=O)CCCCCCCCN1C(=O)C(c2ccccc2)N(c2ccccc2)C1=O (centres unmarked) [Example 1, methyl 2,5-dioxo-3,4-diphenyl-1-imidazolidinenonanoate] | 32 µg/mL (≈ 75.7 µM) |
| O=C(O)CCCCCCCCN1C(=O)C(c2ccccc2)N(c2ccccc2)C1=O (centres unmarked) [Example 2, 2,5-dioxo-3,4-diphenyl-1-imidazolidinenonanoic acid] | 11.9 µg/mL (≈ 29.1 µM) |
